Legend:
Assay type in all cases: cell-based
PPARg (NR1C3) = molecular target: T1, PPARg (NR1C3) (Homo sapiens, UniProt P37231); assay: nuclear hormone receptor reporter gene assay; conditions: concentrations up to 10 μM
T1 sequence (P37231 1-505): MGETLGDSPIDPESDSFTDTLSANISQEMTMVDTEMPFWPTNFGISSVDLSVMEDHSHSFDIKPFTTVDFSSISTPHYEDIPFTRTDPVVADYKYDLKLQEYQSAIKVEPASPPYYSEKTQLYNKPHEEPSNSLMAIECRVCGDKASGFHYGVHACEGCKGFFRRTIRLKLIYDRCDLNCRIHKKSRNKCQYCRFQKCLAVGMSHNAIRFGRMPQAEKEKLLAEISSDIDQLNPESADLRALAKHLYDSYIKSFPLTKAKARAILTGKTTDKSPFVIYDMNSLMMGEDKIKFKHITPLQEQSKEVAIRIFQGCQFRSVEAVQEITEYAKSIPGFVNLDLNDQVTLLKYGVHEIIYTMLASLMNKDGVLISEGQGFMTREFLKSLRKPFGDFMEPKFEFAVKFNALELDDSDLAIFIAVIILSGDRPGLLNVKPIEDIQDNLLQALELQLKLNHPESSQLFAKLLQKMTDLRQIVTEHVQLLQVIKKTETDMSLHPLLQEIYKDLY
Description: (§1) So far oxysterols have been noted to have various physiological activities namely regulate the expression of genes that participate in both sterol and fat metabolism, serve as substrates for the synthesis of bile acids, and are intermediates in the transfer of sterols from the periphery to the liver (Russell, D. W. (2000). Oxysterol biosynthetic enzymes. Biochim. Biophys. Acta 1529, 126-135). […] This included binding assays for 26 different GPCRs, functional assays of 9 different GPCRs, 40 kinase assays, as well as selected ion channels, proteases, transporter and enzyme assays.

SXR (NR112) = molecular target: T2, SXR (NR112) (Homo sapiens, UniProt O75469); assay: nuclear hormone receptor reporter gene assay; conditions: concentrations up to 10 μM
T2 sequence (O75469 1-434): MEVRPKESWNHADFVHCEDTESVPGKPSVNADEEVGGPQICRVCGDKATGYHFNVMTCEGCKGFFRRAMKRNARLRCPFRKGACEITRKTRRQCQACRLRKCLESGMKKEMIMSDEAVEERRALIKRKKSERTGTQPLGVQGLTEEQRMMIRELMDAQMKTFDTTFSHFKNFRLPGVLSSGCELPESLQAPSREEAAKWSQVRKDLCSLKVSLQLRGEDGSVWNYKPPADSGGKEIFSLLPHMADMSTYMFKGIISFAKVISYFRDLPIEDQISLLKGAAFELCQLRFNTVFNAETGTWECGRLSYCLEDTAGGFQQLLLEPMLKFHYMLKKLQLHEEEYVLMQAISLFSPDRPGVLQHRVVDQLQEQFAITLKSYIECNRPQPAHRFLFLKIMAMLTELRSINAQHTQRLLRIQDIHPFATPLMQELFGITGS
Description: as §1

hEBI2 [1] = molecular target: T3, hEBI2 (Homo sapiens, UniProt P32249); assay: β-arrestin Pathhunter assay; design: host or cells: HEK293-BAEA, transient transfection with Fugene6; conditions: for EC50: HEK293-BAEA transiently transfected with hEBI2-prolink, read-out: EC50, β-arrestin recruitment
T3 sequence (P32249 whole entry): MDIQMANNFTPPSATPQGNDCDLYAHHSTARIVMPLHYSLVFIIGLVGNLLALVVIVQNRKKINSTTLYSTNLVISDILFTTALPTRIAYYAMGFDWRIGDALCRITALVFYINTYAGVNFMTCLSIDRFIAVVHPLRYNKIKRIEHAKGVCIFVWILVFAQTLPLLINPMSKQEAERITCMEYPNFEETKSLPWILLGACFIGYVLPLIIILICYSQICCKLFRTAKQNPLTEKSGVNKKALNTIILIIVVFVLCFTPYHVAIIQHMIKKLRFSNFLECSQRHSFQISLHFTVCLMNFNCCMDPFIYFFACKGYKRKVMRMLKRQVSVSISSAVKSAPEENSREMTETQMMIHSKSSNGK
Description: Several assay technologies (Transfluor™, (Ghosh, R. N., et al. (2005). Quantitative cell-based high-content screening for vasopressin receptor agonists using transfluor technology. J Biomol Screen 10.; Granas, C., at al. (2005). High content screening for G protein-coupled receptors using cell-based protein translocation assays. Comb Chem High Throughput Screen 8.); Pathhunter™, (Hammer, M. M., et al. (2007). A novel enzyme complementation-based assay for monitoring G-protein-coupled receptor internalization. Faseb J, 21; Wehrman, T. S., at al. (2005). Enzymatic detection of protein translocation. Nat Methods 2), Tango™, (Barnea, G., et al. (2008). Here we have applied the Pathhunter™ technology (DiscoverRx) to probe for an interaction of EBI2 with B-arrestin. For that human EBI2 was cloned into the Prolink™ vector (DiscoveRx) for GPCR-prolink fusion protein production. Parental HEK293 cells that stably express β-arrestin2-β-gal-EA fusion protein (HEK293-BAEA) were detached and transiently transfected with hEBI2-prolink vector using Fugene6 transfection reagent in suspension mode. Transfected cells in assay medium (Phenol Red-free DMEM with 10% FBS) were plated into white solid 384 well plates at 15,000 cells/25 μl/well. After overnight incubation, 200 nl of test molecules were transferred into the cell plates by PinTool™ (GNF Systems) followed by 1-2 hour incubation at 37° C., 5% CO2. Flash detection reagents were added at 12.5 μl/well. After 5 min—1 hr room temperature incubation, the cell plates were read on CLIPR™ (Perkin Elmer) or Acquest™ (Molecular Devices) for luminescence signal.

hEBI2 [2] = molecular target: T3, hEBI2; assay: cAMP assay, hEBI2 CHO-AeqGα16 cells; design: expressed in transfected cells; host or cells: CHO-K1 expressing apoaequorin (CHO-Aeq) with Gqi5; line E2
Procedure: The same stable EBI2 cell line used in the aequorin assay was used in cAMP assay. 10,000 cells (25 μA) were seeded per well into white solid 384-well plate and incubated in 37° C. incubator overnight. 500 nl of compound was then transferred into each assay well, followed by 5 μl of forskolin addition for a final concentration of 30 μM. Cells were returned to a 37° C. incubator for 30 min. Finally 15 μl each of HiRange D2-cAMP and anti-cAMP cryptate were dispensed per well. After >1 hr room temperature incubation, data acquisition was done in the time-resolved FRET (fluorescence-resonance energy transfer) mode on Envision™ or ViewLux™ (Perkin Elmer). The ratio between the acceptor fluorescence signal (A665 nm) and donor fluorescence signal (A620 nm)×104, representing the FRET between the conjugated cAMP and the anti-cAMP antibody, was calculated and plotted on Y-axis. The higher the signal, the lower endogenous cAMP concentration is in the sample.

Compound	activation of PPARg (PPARg (NR1C3))	activation of SXR (SXR (NR112))	EC50 (hEBI2 [1]) [µM]	EC50 (hEBI2 [2]) [µM]	efficacy, β-arrestin recruitment (hEBI2 [1]) [%]	EC50 (hEBI2 [2]; forskolin 30 μM, read-out: EC50, cAMP assay) [µM]
C[C@H](CCCC(C)(C)O)[C@H]1CC[C@H]2[C@@H]3[C@H](O)C=C4C[C@@H](O)CC[C@]4(C)[C@H]3CC[C@]12C [7a,25DHC, cholest-5-ene-3b,7a,25-triol]	did not activate	did not activate	0.008	0.0103	–	–
CC(CO)CCC[C@@H](C)[C@H]1CC[C@H]2[C@@H]3[C@H](O)C=C4C[C@@H](O)CC[C@]4(C)[C@H]3CC[C@]12C (stereo partly drawn) [7a,27DHC, cholest-5-ene-3b,7a,27-triol]	did not activate	did not activate	–	–	–	–
C[C@H](CCCC(C)(C)O)[C@H]1CC[C@H]2[C@@H]3[C@@H](O)C=C4C[C@@H](O)CC[C@]4(C)[C@H]3CC[C@]12C [7b,25DHC, cholest-5-ene-3b,7b,25-triol]	–	–	0.837	–	48	10.6

Reference: US8497075B2, “Methods of identifying a modulator that inhibits the binding between Epstein-Barr virus induced receptor 2 and cholesterol derived ligands” (Novartis AG, priority 2008, dated 2013)
